This passage reports IC50 results from patent US20130217664A1, “NOVEL COMPOUNDS USEFUL FOR THE TREATMENT OF DEGENERATIVE AND INFLAMMATORY DISEASES” (priority 2012, published 2013).

Molecules are shown by their SMILES. Where two headings read alike, the source gives them in different places. A value given as a limit tells only on which side of the number the result lay.

For one test, the system named is BA/F3 cell line. The test is described as follows: BA/F3 viability assay. Particulars: Mus musculus, BaF3, 48 h, read-out: BA/F3 IC50.
The target of the next test is T1, human JAK1 (Homo sapiens, UniProt P23458).
T1 construct: catalytic domain, amino acids 866-1154; catalog number PV4774; purchased Invitrogen PV4774
The test is described as follows: JAK1 inhibition assay (polyGT substrate / Ulight-JAK1 peptide). The format is biochemical. As to conditions: recombinant human JAK1 catalytic domain; polyGT or Ulight-JAK1 peptide assay. A digest of the protocol:
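Signal scaled between vehicle and 10 μM staurosporine. Radiometric polyGT reactions ran 45 min at 30 °C, counted after phosphoric-acid stop. Ulight peptide reactions ran 60 min at room temperature, fluorescence read after adding Eu-PT66 detection mix with EDTA.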

The target of another test is T2, human TYK2 (Homo sapiens, UniProt P29597).
T2 construct: catalytic domain (amino acids 871-1187; catalog number 08-147); purchased Carna Biosciences 08-147
T2 sequence (P29597 871-1187): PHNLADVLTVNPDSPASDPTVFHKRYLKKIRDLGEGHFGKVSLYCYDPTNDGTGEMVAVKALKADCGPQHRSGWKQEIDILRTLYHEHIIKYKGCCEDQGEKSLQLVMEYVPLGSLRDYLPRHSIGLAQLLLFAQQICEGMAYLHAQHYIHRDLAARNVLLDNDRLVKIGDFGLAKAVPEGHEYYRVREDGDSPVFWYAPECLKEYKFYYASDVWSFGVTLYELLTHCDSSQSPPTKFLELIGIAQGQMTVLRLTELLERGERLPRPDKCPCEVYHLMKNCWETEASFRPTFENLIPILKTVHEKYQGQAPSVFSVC
Briefly: TYK2 inhibition assay. Type of test: biochemical. As to conditions: recombinant human TYK2 catalytic domain, polyGT substrate. An outline of the steps: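 Radiometric kinase reaction run 90 min at 30 °C, stopped with phosphoric acid, washed and scintillation-counted.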

Test [1] has as its system pSTAT1(2)-luciferase reporter in HeLa cells triggered with human OSM. The test is described as follows: JAK-STAT signalling assay. Type of test: cell-based. As to conditions: HeLa cells, pSTAT1(2)-luciferase reporter, human OSM 33 ng/mL, read-out: JAK-STAT IC50. A digest of the protocol:
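Compound added 60 min before 33 ng/mL (final) human OSM; after overnight stimulation at 37 °C, luciferase signal from a transiently transfected pSTAT1(2) reporter in HeLa cells was read, with LacZ as internal control. EC50 derived from percent-inhibition dose-response curves.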

A further test relates to CTLL-2 cell line. Briefly: CTLL2 viability assay. As to conditions: Mus musculus, IL-2 dependent CTLL2 viability, 24 h, ATP-lite. Type of test: cell-based. An excerpt:
The protocol describes the methods to analyse the activity of compounds on their ability to sustain the IL2-dependent viability of CTLL2.
Final DMSO concentration was 0.1%.

The next test deals with T3, human JAK3 (Homo sapiens, UniProt P52333).
T3 construct: catalytic domain (amino acids 781-1124; catalog number PV3855); purchased Invitrogen PV3855
The test is described as follows: JAK3 inhibition assay. Particulars: recombinant human JAK3 catalytic domain; polyGT substrate. Type of test: biochemical. A digest of the protocol:
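Radiometric kinase assay: 0.5 ng JAK3 with 2.5 μg polyGT in Tris pH 7.5/MgCl2 buffer, 1 μM ATP plus 0.25 μCi 33P-γ-ATP, 1% DMSO, 45 min at 30 °C, stopped with phosphoric acid.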

The target in a further test is T4, human JAK2 (Homo sapiens, UniProt O60674).
T4 construct: catalytic domain (amino acids 808-1132; catalog number PV4210); GST; purchased Invitrogen PV4210
Briefly: JAK2 inhibition assay (polyGT substrate / Ulight-JAK1 peptide). Type of test: biochemical. As to conditions: recombinant human JAK2 catalytic domain; polyGT or Ulight-JAK1 peptide assay. A digest of the protocol:
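Two JAK2 formats: a ^33P-ATP polyGT assay (1 μM cold ATP, 90 min, 30° C., cpm read-out) and a Ulight-JAK1 peptide assay read by Europium-anti-phosphotyrosine fluorescence after 60 min at room temperature.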

T1 sequence (P23458 866-1154): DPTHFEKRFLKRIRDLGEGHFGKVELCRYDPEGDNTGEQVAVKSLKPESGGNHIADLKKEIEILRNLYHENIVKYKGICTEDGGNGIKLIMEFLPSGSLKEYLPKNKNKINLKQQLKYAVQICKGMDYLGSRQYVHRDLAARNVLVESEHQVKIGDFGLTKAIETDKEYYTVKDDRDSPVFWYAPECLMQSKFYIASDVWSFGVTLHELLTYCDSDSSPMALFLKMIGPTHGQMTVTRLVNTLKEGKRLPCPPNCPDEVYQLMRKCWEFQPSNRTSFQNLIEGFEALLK
T3 sequence (P52333 781-1124): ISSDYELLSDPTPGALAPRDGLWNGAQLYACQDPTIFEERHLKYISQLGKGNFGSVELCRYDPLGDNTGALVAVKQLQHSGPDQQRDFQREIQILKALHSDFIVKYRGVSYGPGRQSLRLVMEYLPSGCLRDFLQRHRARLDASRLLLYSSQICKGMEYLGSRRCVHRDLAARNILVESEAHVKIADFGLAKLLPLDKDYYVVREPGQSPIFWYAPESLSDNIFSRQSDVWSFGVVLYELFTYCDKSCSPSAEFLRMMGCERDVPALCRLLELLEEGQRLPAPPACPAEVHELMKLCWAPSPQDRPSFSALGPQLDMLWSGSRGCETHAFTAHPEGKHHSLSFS
T4 sequence (O60674 808-1132): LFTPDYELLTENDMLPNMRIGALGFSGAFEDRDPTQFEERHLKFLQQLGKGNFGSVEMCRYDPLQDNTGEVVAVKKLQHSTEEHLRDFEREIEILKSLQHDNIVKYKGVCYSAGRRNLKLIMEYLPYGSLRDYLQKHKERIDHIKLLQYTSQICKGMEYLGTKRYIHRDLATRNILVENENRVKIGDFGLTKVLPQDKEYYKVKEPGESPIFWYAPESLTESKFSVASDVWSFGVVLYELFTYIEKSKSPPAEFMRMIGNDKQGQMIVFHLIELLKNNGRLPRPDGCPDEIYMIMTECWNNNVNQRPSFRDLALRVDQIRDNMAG

Regarding `CN(c1cc2c(cn1)ncn2C)c1ccc(-c2cnn(C)c2)cc1OC(F)F` [Compound 274, N-(2-(Difluoromethoxy)-4-(1-methyl-1H-pyrazol-4-yl)phenyl)-N,1-dimethyl-1H-imidazo[4,5-c]pyridin-6-amine], the IC50 in the test on BA/F3 cell line was 1000 to 5000 nM; on human JAK1, 0.01 to 100 nM; on human TYK2, 0.01 to 100 nM; in test [1], 1 to 500 nM; in the test on CTLL-2 cell line it was over 1000 nM; at human JAK3 it was 101 to 500 nM.

For the compound `CCc1cc(CNS(=O)(=O)N2CCCCC2)ccc1N(C)c1cc2c(cn1)ncn2C` [Compound 243, N-(3-ethyl-4-(methyl(1-methyl-1H-imidazo[4,5-c]pyridin-6-yl)amino)benzyl)piperidine-1-sulfonamide], the IC50 with BA/F3 cell line is 1000 to 5000 nM; on human JAK1, 0.01 to 100 nM; on human TYK2, 101 to 500 nM; in test [1] (Homo sapiens, HeLa), 1 to 500 nM; in the test on CTLL-2 cell line, over 1000 nM; at human JAK3, 101 to 500 nM.

Consider `CCc1cc(CN2CCCS2(=O)=O)ccc1N(C)c1cc2c(cn1)ncn2C` [Compound 262, [4-(1,1-Dioxoisothiazolidin-2-ylmethyl)-2-ethyl-phenyl]-methyl-(1-methyl-1H-imidazo[4,5-c]pyridin-6-yl)-amine], for which the IC50 in the test with BA/F3 cell line was 1000 to 5000 nM; on human JAK1, 0.01 to 100 nM; at human TYK2 it was 101 to 500 nM; in test [1], 1 to 500 nM; with CTLL-2 cell line, over 1000 nM; at human JAK3, 101 to 500 nM.

Regarding `CCc1cc(CNS(=O)(=O)CC(F)(F)F)ccc1N(C)c1cc2c(cn1)ncn2C` [Compound 244, N-(3-ethyl-4-(methyl(1-methyl-1H-imidazo[4,5-c]pyridin-6-yl)amino)benzyl)-2,2,2-trifluoroethane sulfonamide], the IC50 with BA/F3 cell line was 1000 to 5000 nM; at human JAK1, 0.01 to 100 nM; at human TYK2 it was 0.01 to 100 nM; in test [1] (Homo sapiens, HeLa) it was 1 to 500 nM; with CTLL-2 cell line, over 1000 nM; at human JAK3, 0.01 to 100 nM.

As for `CCc1cc(-c2cnn(C)c2)ncc1N(C)c1cc2c(cn1)ncn2C` [Compound 280, N-(4-Ethyl-6-(1-methyl-1H-pyrazol-4-yl)pyridin-3-yl)-N,1-dimethyl-1H-imidazo[4,5-c]pyridin-6-amine], the IC50 in the test with BA/F3 cell line was over 5000 nM; on human JAK1, 0.01 to 100 nM; at human TYK2 it was 101 to 500 nM; in test [1], over 1000 nM; in the test with CTLL-2 cell line it was over 1000 nM; on human JAK3, over 1000 nM.

For `CCc1cc(CNC(=O)C(F)F)ccc1N(C)c1cc2c(cn1)ncn2C` [Compound 256, N-(3-ethyl-4-(methyl(1-methyl-1H-imidazo[4,5-c]pyridin-6-yl)amino)benzyl)-2,2-difluoroacetamide], the IC50 with BA/F3 cell line is over 5000 nM; on human JAK1 it was 0.01 to 100 nM; on human TYK2, 101 to 500 nM; in test [1] (Homo sapiens, HeLa), 1 to 500 nM; in the test with CTLL-2 cell line it was over 1000 nM; on human JAK3, 0.01 to 100 nM.

As to `CCc1cc(CNS(=O)(=O)CC#N)ccc1N(C)c1cc2c(cn1)ncn2C` [Compound 228, 1-cyano-N-(3-ethyl-4-(methyl(1-methyl-1H-imidazo[4,5-c]pyridin-6-yl)amino)benzyl)methane-sulfonamide], the IC50 in the test with BA/F3 cell line was over 5000 nM; on human JAK1, 0.01 to 100 nM; on human TYK2 it was 0.01 to 100 nM; in test [1] (Homo sapiens, HeLa), 1 to 500 nM; in the test with CTLL-2 cell line it was 1 to 500 nM; on human JAK3, 0.01 to 100 nM.

As to `CCc1cc(CNS(=O)(=O)C(C)C)ccc1N(C)c1cc2c(cn1)ncn2C` [Compound 245, N-(3-ethyl-4-(methyl(1-methyl-1H-imidazo[4,5-c]pyridin-6-yl)amino)benzyl)propane-2-sulfonamide], the IC50 with BA/F3 cell line is 1000 to 5000 nM; on human JAK1 it was 0.01 to 100 nM; on human TYK2, 101 to 500 nM; in test [1] (Homo sapiens, HeLa) it was 501 to 1000 nM; with CTLL-2 cell line, over 1000 nM; at human JAK3, 101 to 500 nM.

Turning to `CCc1cc(C2=CCN(C(=O)C3(O)CC3)CC2)ccc1N(C)c1cc2c(cn1)ncn2C` [Compound 229, (4-(3-ethyl-4-(methyl(1-methyl-1H-imidazo[4,5-c]pyridin-6-yl)amino)phenyl)-5,6-dihydropyridin-1(2H)-yl)(1-hydroxycyclopropyl)meth-anone], the IC50 in the test with BA/F3 cell line was 1000 to 5000 nM; at human JAK1, 0.01 to 100 nM; at human TYK2, 0.01 to 100 nM; in test [1] (Homo sapiens, HeLa), 1 to 500 nM; with CTLL-2 cell line, over 1000 nM; on human JAK3, 101 to 500 nM.

On to `CCc1cc(C(C#N)N2CCN(C(C)=O)CC2)ccc1N(C)c1cc2c(cn1)ncn2C` (centres unmarked) [Compound 396, (4-Acetyl-piperazin-1-yl)-{3-ethyl-4-[methyl-(1-methyl-1H-imidazo[4,5-c]pyridin-6-yl)-amino]phenyl}-acetonitrile], for which the IC50 is 0.01 to 100 nM on human JAK2; over 5000 nM in the test with BA/F3 cell line; 0.01 to 100 nM at human JAK1; 0.01 to 100 nM at human TYK2; over 1000 nM in the test with CTLL-2 cell line; 0.01 to 100 nM on human JAK3.

As for `CCc1cc(C2CCN(S(C)(=O)=O)CC2)ccc1N(C)c1cc2c(cn1)ncn2C` [Compound 214, N-(2-ethyl-4-(1-(methylsulfonyl)piperidin-4-yl)phenyl)-N,1-dimethyl-1H-imidazo[4,5-c]pyridin-6-amine], the IC50 in the test with BA/F3 cell line fell in the range of 1 to 1000 nM; at human JAK1, 0.01 to 100 nM; on human TYK2 it was 0.01 to 100 nM; in test [1] (Homo sapiens, HeLa) it was 1 to 500 nM; in the test with CTLL-2 cell line, 501 to 1000 nM.

For `CCc1cc(C(C#N)N2CCC(F)(F)CC2)ccc1N(C)c1cc2c(cn1)ncn2C` (centres unmarked) [Compound 395, (4,4-Difluoro-piperidin-1-yl)-{3-ethyl-4-[methyl-(1-methyl-1H-imidazo[4,5-c]pyridin-6-yl)-amino]-phenyl}-acetonitrile], the IC50 on human JAK2 is 0.01 to 100 nM; in the test with BA/F3 cell line, over 5000 nM; at human JAK1, 0.01 to 100 nM; on human TYK2 it was 0.01 to 100 nM; in the test with CTLL-2 cell line, over 1000 nM; at human JAK3, 101 to 500 nM.

As for `CN(c1cc2c(cn1)ncn2C)c1ccc(CN(C)S(C)(=O)=O)cc1OC(F)F` [Compound 430, N-{3-Difluoromethoxy-4-[methyl-(1-methyl-1H-imidazo[4,5-c]pyridin-6-yl)-amino]-benzyl}-N-methyl-methanesulfonamide], the IC50 on human JAK2 was 0.01 to 100 nM; with BA/F3 cell line, 1000 to 5000 nM; at human JAK1, 0.01 to 100 nM; at human TYK2, 0.01 to 100 nM; in the test on CTLL-2 cell line, over 1000 nM; at human JAK3 it was 0.01 to 100 nM.

Turning to `CCc1cc(C2CN(C(=O)C(F)(F)F)C2)ccc1N(C)c1cc2c(cn1)ncn2C` [Compound 347, 1-(3-{3-Ethyl-4-[methyl-(1-methyl-1H-imidazo[4,5-c]pyridin-6-yl)-amino]-phenyl}-azetidin-1-yl)-2,2,2-trifluoro-ethanone], the IC50 at human JAK2 was 101 to 500 nM; in the test with BA/F3 cell line, over 5000 nM; on human JAK1, 0.01 to 100 nM; at human TYK2, 101 to 500 nM; with CTLL-2 cell line, over 1000 nM; at human JAK3, 101 to 500 nM.

Regarding `CCc1cc(C2CN(S(=O)(=O)CCOC)C2)ccc1N(C)c1cc2c(cn1)ncn2C` [Compound 349, {2-Ethyl-4-[1-(2-methoxy-ethanesulfonyl)-azetidin-3-yl]-phenyl}-methyl-(1-methyl-1H-imidazo[4,5-c]pyridin-6-yl)-amine], the IC50 is 0.01 to 100 nM on human JAK2; 1000 to 5000 nM in the test on BA/F3 cell line; 0.01 to 100 nM on human JAK1; 0.01 to 100 nM at human TYK2; over 1000 nM with CTLL-2 cell line; 101 to 500 nM at human JAK3.
